Measurements: paper PMC6130489, “Caffeic acid methyl and ethyl esters exert potential antidiabetic effects on glucose and lipid metabolism in cultured murine insulin-sensitive cells through mechanisms implicating activation of AMPK” (Pharmaceutical Biology, 2017)

Key:
[1] = test system: AMPK; experiment: Western immunoblot phospho-AMPK in L6 myotubes; type: cell-based, rat; settings: 50 μM, 18 h, phospho-AMPK/β-actin
Method: (§1) L6 cells myotubes, H4IIE cells and 3T3-L1 adipocytes were treated with either CAME, CAEE (50 μM each) or vehicle (DMSO) for 18 h. Insulin (100 nM) or aminoimidazole carboxamide ribonucleotide (AICAR; 1 mM) were added to some vehicle-treated wells 30 min prior to the end of the treatment and served as the positives controls. Protein content was assayed by the bicinchoninic acid method (Thermo Scientific Pierce Protein Research, Rockford, IL) standardized to bovine serum albumin. Western immunoblotting was performed as described elsewhere (Eid et al. [2010]). Membranes were incubated overnight with phospho-AMPK, phospho-Akt, GLUT4, GLUT1 and β-actin antibodies (1:1000 dilution, Cell Signalling Technology, Danvers, MA), or with PPAR-γ, SREBP-1 (1:200, Santa Cruze Biotechnology, Santa Cruz, CA), followed by incubation with HRP-coupled secondary antibody (1:10,000) for 1 h. Immunoreactive bands were visualized by enhanced chemiluminescence and quantified by the Scion Image program (Scion Corporation, Frederick, MD). Experiments were repeated on 3 different passages of cells, each passage containing all conditions in parallel.
Figure 1. (A) CAME and CAEE increase ^3H-deoxyglucose uptake in L6 GLUT4myc myotubes. Cells were treated with 50 μM of either CAME, CAEE, or with vehicle (0.1% DMSO) for 18 h. 100 nM insulin served as the positive control and was applied for the last 15 min of the treatment in vehicle-treated cells. Glucose uptake was performed as described in Materials and Methods section. […] Cells were treated as previously described, cell surface GLUT4myc was detected by an enzyme-linked colorimetric assay. […] Results represent the means ± SEM of three independent experiments, and 3-4 cells were analyzed for each condition per experiment. *Indicates a significant (p ≤ 0.05) difference, **(p < 0.01) from the vehicle control group as assessed by ANOVA. […] Data are expressed as (D) phospho-AMPK/β-actin, (E) GLUT4/β-actin and (F) GLUT1/β-actin and are given as mean ± SEM from 3 experiments. *p < 0.05 indicates a significant difference, **(p < 0.01) from the vehicle control group.

[2] = test system: 3T3-L1 cells; experiment: LDH cytotoxicity assay; type: cell-based; settings: 16-18 h, concentration inducing less than 10% cell death
Method: (§2) To determine nontoxic concentrations, cells were treated overnight (16–18 h) with 0.1% DMSO or different concentrations of either CAME or CAEE (12.5, 25, 50 and 100 μM). Cell culture media were collected separately and kept on ice. The cells were rinsed with PBS then lysed with 1% Triton X-100 in culture media for 10 min and the lysate were centrifuged at 4 °C for 10 min at 250g. Lactate dehydrogenase (LDH) activity in medium and in lysates was assayed with the LDH-Cytotoxicity Assay Kit II (BioVision, Mountain View, CA) according to the manufacturer's protocol (Smith et al. [2011]). LDH activity was expressed as the ratio of released LDH (medium) to total (medium + lysate) LDH activity.
(§3) Similar to our previous study in C2C12 cells, the maximum nontoxic concentrations of CAME and CAEE were determined using a LDH assay kit. Concentrations that induced less than 10% cell death were chosen as the maximum nontoxic concentrations (Table 1).

[3] = test system: H4IIE cells; experiment: LDH cytotoxicity assay; type: cell-based; settings: 16-18 h, concentration inducing less than 10% cell death
Method: as §2, §3

[4] = test system: L6 GLUT4myc cells; experiment: LDH cytotoxicity assay; type: cell-based; settings: 16-18 h, concentration inducing less than 10% cell death
Method: as §2, §3

[5] = test system: AMPK; experiment: Western immunoblot phospho-AMPK in 3T3-L1 adipocytes; type: cell-based, mouse; settings: 100 μM (Figure 4 legend), phospho-AMPK/pan-AMPK
Method: as §1, with “Insulin” for “L6 cells myotubes, H4IIE cells and 3T3-L1 adipocytes were treated with either CAME, CAEE (50 μM each) or vehicle (DMSO) for 18 h. Insulin”
Figure 4. CAME and CAEE inhibit C/EBP-β and PPAR-γ protein expression through mechanisms implicating AMPK pathway. Shown are representative blots of 3T3-adipocytes treated with the maximum nontoxic concentration (100 μM) of either CAME or CAEE. […] Data are expressed as C/EBP-β/β-actin (D), PPAR-γ/β-actin (E), phospho-Akt/pan-Akt (F) and phospho-AMPK/pan-AMPK (G). […]

COC(=O)/C=C/c1ccc(O)c(O)c1 [CAME, CA methyl ester]
AMPK phosphorylation, fold increase over DMSO [1]: 13 fold
Maximum non-toxic concentration [2]: 100 µM
Maximum non-toxic concentration [3]: 100 µM
Maximum non-toxic concentration [4]: 50 µM
phospho-AMPK, fold increase over basal levels [5]: 2.4 fold

CCOC(=O)/C=C/c1ccc(O)c(O)c1 [CAEE, caffeic acid ethyl ester]
AMPK phosphorylation, fold increase over DMSO [1]: 11 fold
Maximum non-toxic concentration [2]: 100 µM
Maximum non-toxic concentration [3]: 50 µM
Maximum non-toxic concentration [4]: 50 µM
phospho-AMPK, fold increase over basal levels [5]: 2.3 fold
